# US9567334B2, “Quinolone derivatives as fibroblast growth factor receptor inhibitors” (Principia Biopharma, Inc., priority 2014, dated 2017)
# Test system: SNU-16 cells
# Experiment: Inhibition of FGFR2-dependent cell growth (Cell-titer Glo, 72 hrs)
# Conditions: Homo sapiens, SNU-16, 72 h, read-out: SNU16 IC50 values
smiles,measurement,value
"C=CC(=O)N1CCN(CCCn2c(=O)c(-c3c(Cl)c(OC)cc(OC)c3Cl)cc3cnc(NC4COC4)nc32)CC1 [Example 66, 8-(3-(4-acryloylpiperazin-1-yl)propyl)-6-(2,6-dichloro-3,5-dimethoxyphenyl)-2-(oxetan-3-ylamino)pyrido[2,3-d]pyrimidin-7(8H)-one]",IC50,> 5 µM
